Data as given in article PMC3610419, “A Randomized, Double-Blind Placebo Controlled Trial of Balapiravir, a Polymerase Inhibitor, in Adult Dengue Patients” (The Journal of Infectious Diseases, 2012).
Entries after “also recorded” stand apart in the source; their conditions may differ.

What was measured:
[1] = tested on: DENV; test: Plasma viremia (RT-PCR) in adult dengue patients, randomized placebo-controlled trial; assay type: in vivo, human; conditions: for Median time to first viremia level of <1000 copies/mL (IQR): Kaplan-Meier estimate, inpatient period; for AUC viremia, Mean / AUC viremia, Median (IQR): hour 0 to hour 168
Experimental: Plasma samples were collected for virological and immunological investigations every 12 hours, beginning immediately before commencement of treatment, during the next 6 study days and on one occasion on study day 7 and day 14 (virological markers) or day 7 and day 28 (immunological markers). Viremia was measured using a validated, internally controlled reverse-transcription polymerase chain reaction assay in a Good Clinical Laboratory Practice environment. The limit of detection was 357 copies/mL for DENV-1, 72 copies/mL for DENV-2, 357 copies/mL for DENV-3, and 720 copies/mL for DENV-4. The presence of NS1 in plasma was determined using the Platelia NS1 assay (Bio-Rad) and was performed according to the manufacturer's instructions. Plasma cytokine levels (interleukin 1β [IL-1β], IL-2, IL-4, IL-5, IL-6, IL-10, IL-12p70, IL-13, interferon γ [IFN-γ], and tumor necrosis factor α [TNF-α]) were measured using a Bio-Plex human cytokine assay (Bio-Rad) and a multiplex array reader (Luminex Systems, Bio-Plex workstation from Bio-Rad Laboratories) according to the manufacturer's instructions. Briefly, 50-μL plasma samples were incubated with monoclonal antibody coupled beads. Complexes were washed twice, then incubated with biotinylated detection antibodies and, finally, labeled with streptavidin-phycoerythrin prior to analysis. Cytokine concentrations in samples were calculated by use of recombinant cytokines as standards and software provided by the manufacturer (Bio-Plex Manager). All research samples (for pharmacology, virology, and immunology) were collected and processed in the laboratory within 1 hour of venupuncture. All virological and immunological measurements and analyses were performed by analysts who were blind to the treatment assignment
(§1) Key viremia endpoints of the study were as follows: area under the log-transformed viremia curve (AUC) from first dose to the end of study day 7 (study hour 168), calculated on the basis of the trapezoidal rule with values below the limit of detection replaced by half of the detection limit; time to first viremia level of <1000 copies/mL until study day 7; and time to the first negative NS1 test result. Other predefined key endpoints included fever clearance time, defined as the time from the start of treatment to the start of the first 48-hour period during which axillary temperature remained <37.5°C; maximum hematocrit level; maximum percentage increase of hematocrit level from baseline; platelet count nadir; and lowest recorded quality of life score.
(§2) Time to event endpoints were compared between treatment groups on the basis of Cox regression and continuous endpoints on the basis of linear regression. Analyses were adjusted for the predose value of the respective endpoint; viremia and NS1 endpoints were additionally adjusted for dengue serotype. For all endpoints, we report P values of a trend test for a dose-response relationship with treatment entered as a continuous variable with values 0 (placebo), 1 (low-dose), and 2 (high-dose) into the regression model.

[2] = Predefined clinical and routine laboratory endpoints in adult dengue patients; assay type: in vivo, human; conditions: for Maximum percentage increase of hematocrit level, Mean / Maximum percentage increase of hematocrit level, Median (IQR): from baseline; for Minimum quality of life score, Mean / Minimum quality of life score, Median (IQR): visual analogue scale 0-100
Description: as §1, §2

[3] = 1500 mg or 3000 mg twice daily for 5 days versus placebo
[4] = High-dose (3000 mg twice a day, 5 days), n = 22
[5] = Low-dose (1500 mg twice a day, 5 days), n = 10

For `CC(C)C(=O)OC[C@@]1(N=[N+]=[N-])O[C@@H](n2ccc(N)nc2=O)[C@H](OC(=O)C(C)C)[C@@H]1OC(=O)C(C)C` [Balapiravir], the “effect on virological markers (time to clearance of viremia, time to clearance of NS1 antigenemia, AUC)” value [1, 3] was “did not measurably alter; also recorded: no measurable effect”, the “Median time to first viremia level of <1000 copies/mL (IQR)” value [1, 4] was 4 (3–5) d and the “AUC viremia, Mean” value [1, 4] was 32.56 log10 copies/mL × d. The “AUC viremia, Median (IQR)” value [1, 4] was 31.98 (27.60–34.98) log10 copies/mL × d, the “Median time to first viremia level of <1000 copies/mL (IQR)” value [1, 5] was 5 (4, NA) d and the “AUC viremia, Mean” value [1, 5] was 34.49 log10 copies/mL × d. The “AUC viremia, Median (IQR)” value [1, 5] was 29.63 (27.41–39.86) log10 copies/mL × d, the “effect on fever clearance time, clinical signs and routine laboratory findings” value [2, 3] was “did not affect” and the “Maximum ALT level, Mean” value [2, 4] was 75.2 IU/L. The “Maximum ALT level, Median (IQR)” value [2, 4] was 68.5 (33.3–104.5) IU/L, the “Maximum AST level, Mean” value [2, 4] was 118.4 IU/L and the “Maximum AST level, Median (IQR)” value [2, 4] was 108.0 (45.0–151.5) IU/L. The “Maximum INR, Mean” value [2, 4] was 1.27, the “Maximum INR, Median (IQR)” value [2, 4] was 1.17 (1.09–1.22) and the “Maximum aPTT, Mean” value [2, 4] was 41.8 s. The “Maximum aPTT, Median (IQR)” value [2, 4] was 41.8 (38.3–44.1) s, the “Maximum recorded hematocrit level, Mean” value [2, 4] was 44.6% and the “Maximum recorded hematocrit level, Median (IQR)” value [2, 4] was 45.1 (41.8–46.1) %. The “Median fever clearance time (IQR)” value [2, 4] was 3 (2–4) d, the “Minimum fibrinogen level, Mean” value [2, 4] was 1.88 g/L and the “Minimum fibrinogen level, Median (IQR)” value [2, 4] was 1.86 (1.60–2.03) g/L. For the same compound, the “Minimum platelet count, Mean” value [2, 4] was 54.4 10^9 cells/L, the “Minimum platelet count, Median (IQR)” value [2, 4] was 52 (25.5–64.8) 10^9 cells/L and the “Maximum percentage increase of hematocrit level, Mean” value [2, 4] was 2.6%. The “Maximum percentage increase of hematocrit level, Median (IQR)” value [2, 4] was 1.2 (−4.1–9.2) %, the “Minimum quality of life score, Mean” value [2, 4] was 74.45 and the “Minimum quality of life score, Median (IQR)” value [2, 4] was 77.5 (67.8–82.0). The “Maximum ALT level, Mean” value [2, 5] was 96.3 IU/L, the “Maximum ALT level, Median (IQR)” value [2, 5] was 97.5 (58.0–128.8) IU/L and the “Maximum AST level, Mean” value [2, 5] was 143.6 IU/L. For the same compound, the “Maximum AST level, Median (IQR)” value [2, 5] was 157.5 (116.5–171.5) IU/L, the “Maximum INR, Mean” value [2, 5] was 1.17 and the “Maximum INR, Median (IQR)” value [2, 5] was 1.16 (1.05–1.26). For the same compound, the “Maximum aPTT, Mean” value [2, 5] was 41.3 s, the “Maximum aPTT, Median (IQR)” value [2, 5] was 40.6 (39.6–43.1) s and the “Maximum recorded hematocrit level, Mean” value [2, 5] was 46.7%. The “Maximum recorded hematocrit level, Median (IQR)” value [2, 5] was 45.8 (43.8–49.3) %, the “Median fever clearance time (IQR)” value [2, 5] was 3 (2–4) d and the “Minimum fibrinogen level, Mean” value [2, 5] was 1.94 g/L. For the same compound, the “Minimum fibrinogen level, Median (IQR)” value [2, 5] was 2.08 (1.68–2.25) g/L, the “Minimum platelet count, Mean” value [2, 5] was 26.3 10^9 cells/L and the “Minimum platelet count, Median (IQR)” value [2, 5] was 23 (16.5–33.0) 10^9 cells/L. For the same compound, the “Maximum percentage increase of hematocrit level, Mean” value [2, 5] was 11.5%, the “Maximum percentage increase of hematocrit level, Median (IQR)” value [2, 5] was 11.8 (3.1–15.3) % and the “Minimum quality of life score, Mean” value [2, 5] was 78.3. For the same compound, the “Minimum quality of life score, Median (IQR)” value [2, 5] was 77.0 (69.8–89.0).
